The record followed here is patent US6107070A, “Human manganese superoxide dismutase proteins” (University of Florida, priority 1998, dated 2000).

What all share (assay type): biochemical
Experiment [1] has as its target T1, human manganese superoxide dismutase (hMn SOD) variant Q143N (Gln 143 replaced by Asn), SEQ ID NO:3 (Homo sapiens, UniProt P04179, Q167N).
T1 construct: as a mature protein tagged with an extra Met at the amino terminus; made in house; host or cells: E. coli QC774 (SodA/SodB mutant), pTrc99A
T1 sequence (P04179 25-222 Q167N): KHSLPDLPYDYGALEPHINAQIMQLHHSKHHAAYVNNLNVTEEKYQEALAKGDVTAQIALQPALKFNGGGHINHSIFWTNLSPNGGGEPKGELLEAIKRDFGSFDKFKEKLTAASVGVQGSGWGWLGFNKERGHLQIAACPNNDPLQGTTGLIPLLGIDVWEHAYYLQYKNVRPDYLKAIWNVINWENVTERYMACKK
As to the kind of experiment: Decay of superoxide catalyzed by Q143N hMnSOD, pulse radiolysis. The following applies: FIG. 1; first-order fit, 35 μM enzyme, pH 9.6, 20° C. The method, then:
The solutions contained 0.5 μM wild-type MnSOD or 35 μM Q143N hMnSOD and 50 μM EDTA, 10 mM sodium formate, and 2.0 mM sodium pyrophosphate and pH 9.6 and 20° C. The solid line for Q143N hMnSOD is least-squares fit to a first-order process corresponding to Kcat /Km =1×10^6 M^-1 s^-1.
Experiments were carried out at the Center for Fast Kinetics Research at the University of Texas at Austin using a 4-Mev van der Graaff accelerator. A single high-dose electron pulse was used to generate superoxide radical anions from oxygen in acqueous solutions containing 10 mM sodium formate as hydroxyl radical scavenger (Schwartz, 1981) and 50 μM EDTA in addition to buffer and enzyme. All pulse radiolysis experiments were carried out at 20 ° C. The dismutation of O2^- was followed spectrophotometrically from its absorbance at 250 nm (ε=2000M^1 cm^1, Rabani and Nielson, 1969) with a path length of 2.5 cm. Progress curves for each set of 6 to 9 experiments were averaged. Exposure to ultraviolet radiation was minimized by opening a mechanical shutter a fraction of a second before each pulse.

Experiment [2] deals with T2, human manganese superoxide dismutase (hMn SOD) variant Y34F (Tyr34Phe) (Homo sapiens, UniProt P04179, Y58F).
T2 construct: as a mature protein tagged with an extra Met at the amino terminus; made in house; host or cells: E. coli QC774 (SodA/SodB mutant), pTrc99A
T2 sequence (P04179 25-222 Y58F): T1 sequence (P04179 25-222 Q167N) with Y34F, N143Q
The experiment is described as follows: Disproportionation of superoxide by Y34F hMnSOD, Example 3 (Tables 4 and 5), 20° C. The method, then: (§1) Experiments were based on the stabilization of KO2 in aprotic solvent and the subsequent large dilution of this solution by an aqueous solution of enzyme in a stopped-flow apparatus, as described by McClune and Fee (1978). KO2 was dissolved in a mixture of dimethyl sulfoxide and […] (2:1 by volume; Aldrich, spectrophotometric grade) with solubility of KO2 enhanced with 18-crown-6 (Valentine and Curtis, 1975). The stopped-flow spectrophotometer (Kinetic Instruments, Ann Arbor, Mich.) was capable of efficient mixing of this solution with an acqueous solution of enzyme in buffer with a dead time between 1.5 and 2.0 ms. One drive syringe (capacity 50 μl) contained the aprotic solution of O2. This was diluted fifty-fold by the contents of a second syringe (capacity 2.5 ml) which contained enzyme, EDTA, and buffer. The decay of superoxide in initial velocity experiments and progress curves was monitored by its absorption at 250 to 300 nm. Stopped-flow experiments were carried out at […]. Four or more kinetic traces were averaged to reduce noise. Steady-state parameters were obtained by least-squares analysis of such data (Leatherbarrow (1987) "Enzfitter: a nonlinear regression data analysis program for the IBM PC" Elsevier BIOSOFT, Cambridge).
(§2) In the present study, several novel hMnSOD proteins containing substitutions of His 30 (referring to the amino acid sequence of SEQ ID NO:2) were prepared by PCR site directed mutagenesis and purified by column chromatography, as described in the Materials and Methods section above, and as also described by Hsu et al. (1996) J. Biol. Chem. 271: 1768; and Hsieh et al. (1998) Biochemistry 37: 4731. In particular, His 30 was substituted with each of Ala, Asn, Ser and Gln. The resulting novel hMnSOD proteins containing a His 30 substitution were then assayed for enzymatic activity and product inhibition at 20° C. by measuring the absorbance of superoxide at 250 nm using stopped-flow spectrophotometry, as described above in the Materials and Methods section. […]

Experiment [3] addresses T3, human manganese superoxide dismutase (hMn SOD) variant H30A (His 30 replaced by Ala) (Homo sapiens, UniProt P04179, H54A).
T3 construct: as a mature protein tagged with an extra Met at the amino terminus; made in house
T3 sequence (P04179 25-222 H54A): T1 sequence (P04179 25-222 Q167N) with H30A, N143Q
As to the kind of experiment: Disproportionation of superoxide by H30A hMnSOD, stopped-flow, 20° C. The conditions noted are these: pH 9.6, 20° C. Here is the method: as §1, §2

In experiment [4] the target is T4, human manganese superoxide dismutase (hMn SOD) variant H30E (Homo sapiens, UniProt P04179, E155Q/H54E).
T4 construct: as a mature protein tagged with an extra Met at the amino terminus; made in house
T4 sequence (P04179 25-222 H54E/E155Q): T1 sequence (P04179 25-222 Q167N) with H30E, E131Q, N143Q
The experiment is described as follows: Disproportionation of superoxide by H30E hMnSOD, 20° C. The conditions noted are these: Table 4; pH 9.4, 20° C.

Where [5] appears, read: Table 4, 20° C., pH 9.4 per footnote.

The structures appear in SMILES notation. Positions count from the first letter of the chain named.

Consider `[O]O` [superoxide], for which the “kcat /Km” value is 1e+06 M⁻¹ s⁻¹ in experiment [1], 870 μM^.1 S^.1 in experiment [2] (setting [5]), 20 μM^.1 S^.1 in experiment [3] (Table 4) and 0.63 μM^.1 S^.1 in experiment [4]. Besides, the figures for the kcat in experiment [2] (setting [5]), in experiment [3] (Table 4) and in experiment [4] were 3.3 ms^.1, 1.9 ms^.1 and 0.052 ms^.1, respectively. Besides, the “ko /[E] (rate constant for the zero-order region of catalysis)” value came out at 88 S^.1 in experiment [2] (Table 5, pH 9.6, 20° C.) and 610 S^.1 in experiment [3] (Table 5).
